US8895738B2, “Mesoionic pyrido [1, 2-A] pyrimidine pesticides” (E I du Pont de Nemours and Company, priority 2010, dated 2014)
Counter-ions that a name gives are not always drawn.

What was measured:
Format in all cases: in vivo
[1] = tested on: corn planthopper (Peregrinus maidis); test: Test D: control of corn planthopper on maize plant, contact and/or systemic; settings: 144 h, assessed after 6 days, read-out: control efficacy: mortality; for mortality at 10 ppm: sprayed at 10 ppm; for mortality at 50 ppm: sprayed at 50 ppm
Protocol: For evaluating control of corn planthopper (Peregrinus maidis) through contact and/or systemic means, the test unit consisted of a small open container with a 3-4-day-old maize plant (spike) inside. White sand was added to the top of the soil prior to application. Test compounds were formulated and sprayed at 250, 50, 10 and/or 2 ppm, and replicated three times as described for Test A. After spraying, the test units were allowed to dry for 1 h before they were post-infested with ˜15-20 nymphs (18 to 21 day old) by sprinkling them onto the sand with a salt shaker. A black, screened cap was placed on the top of each test unit, and the test units were held for 6 days in a growth chamber at 22-24° C. and 50-70% relative humidity. Each test unit was then visually assessed for insect mortality.

[2] = tested on: green peach aphid (Myzus persicae); test: Test B: control of green peach aphid on radish plant, contact and/or systemic; settings: 144 h, assessed after 6 days
From the text: For evaluating control of green peach aphid (Myzus persicae) through contact and/or systemic means, the test unit consisted of a small open container with a 12-15-day-old radish plant inside. This was pre-infested by placing on a leaf of the test plant 30-40 aphids on a piece of leaf excised from a culture plant (cut-leaf method). The aphids moved onto the test plant as the leaf piece desiccated. After pre-infestation, the soil of the test unit was covered with a layer of sand.
Test compounds were formulated and sprayed at 250, 50 and/or 10 ppm as described for Test A. The applications were replicated three times. After spraying of the formulated test compound, each test unit was allowed to dry for 1 h and then a black, screened cap was placed on top. The test units were held for 6 days in a growth chamber at 19-21° C. and 50-70% relative humidity. Each test unit was then visually assessed for insect mortality.

[3] = tested on: potato leafhopper (Empoasca fabae); test: Test E: control of potato leafhopper on Soleil bean plant, contact and/or systemic; settings: 144 h, assessed after 6 days, read-out: control efficacy: mortality; for mortality at 10 ppm: sprayed at 10 ppm; for mortality at 50 ppm: sprayed at 50 ppm
Protocol: For evaluating control of potato leafhopper (Empoasca fabae) through contact and/or systemic means, the test unit consisted of a small open container with a 5-6-day-old Soleil bean plant (primary leaves emerged) inside. White sand was added to the top of the soil and one of the primary leaves was excised prior to application.
Test compounds were formulated and sprayed at 250, 50, 10 and/or 2 ppm, and the tests were replicated three times as described for Test A. After spraying, the test units were allowed to dry for 1 h before they were post-infested with 5 potato leafhoppers (18-21-day-old adults). A black, screened cap was placed on the top of each test unit, and the test units were held for 6 days in a growth chamber at 24° C. and 70% relative humidity. Each test unit was then visually assessed for insect mortality.

[4] = tested on: cotton melon aphid (Aphis gossypii); test: Test C: control of cotton melon aphid on cotton plant, contact and/or systemic
From the text: For evaluating control of cotton melon aphid (Aphis gossypii) through contact and/or systemic means, the test unit consisted of a small open container with a 6-7-day-old cotton plant inside. This was pre-infested with 30-40 insects on a piece of leaf according to the cut-leaf method described for Test B, and the soil of the test unit was covered with a layer of sand.
Test compounds were formulated and sprayed at 250 and/or 50 ppm as described for Test B. The applications were replicated three times. After spraying, the test units were maintained in a growth chamber and then visually rated as described for […].

[5] = tested on: rice brown planthopper (Nilaparvata lugens); test: Test H: control of rice brown planthopper on rice plant; settings: 120 h, sprayed at 10 ppm, assessed after 5 days, read-out: control efficacy: mortality
Protocol: For evaluating control of rice brown planthopper (Nilaparvata lugens) through contact and/or systemic means, the test unit consisted of a plastic pot containing a 13-cm-tall rice plant covered with steel wire mesh (50 mesh) supported by a wire frame. A small amount of sand was added to form a good seal between the bottom of the wire mesh, the soil surface and the top edge of the plastic pot.
Test compounds were formulated and sprayed at 10, 2 and/or 0.4 ppm, and the tests were replicated three times in a manner similar to the one described for Test A. After spraying, the test units were allowed to dry for 2 h before they were post-infested with 10 brown planthoppers (3rd instar nymphs, 7-9 days post-hatch). After 5 days, each test unit was visually assessed for insect mortality.

[6] = tested on: rice green leafhopper (Nephotettix virescens); test: Test G: control of rice green leafhopper on rice plant; settings: 120 h, sprayed at 50 ppm, assessed after 5 days, read-out: control efficacy: mortality
Protocol: For evaluating control of rice green leafhopper (Nephotettix virescens) through contact and/or systemic means, the test unit consisted of a plastic pot containing a 13-cm-tall rice plant covered with steel wire mesh (50 mesh) supported by a wire frame. A small amount of sand was added to form a good seal between the bottom of the wire mesh, the soil surface and the top edge of the plastic pot.
Test compounds were formulated and sprayed at 50, 10 and/or 2 ppm, and the tests were replicated three times in a manner similar to the one described for Test A. After spraying, the test units were allowed to dry for 2 h before they were post-infested with 10 green leafhoppers (3rd instar nymphs, 7-9 days post-hatch). After 5 days, each test unit was visually assessed for insect mortality.

O=c1c(-c2ccccc2)c([O-])[n+](Cc2cncnc2)c2ccccn12 [Compound 1, 2-hydroxy-4-oxo-3-phenyl-1-(5-pyrimidinylmethyl)-4H-pyrido[1,2-a]pyrimidinium inner salt]
≥ 80%: mortality at 10 ppm [1] | mortality at 50 ppm [1] | mortality at 250 ppm ([1]; sprayed at 250 ppm) | mortality at 50 ppm ([2]; sprayed at 50 ppm) | mortality at 250 ppm ([2]; sprayed at 250 ppm) | mortality at 2 ppm ([3]; sprayed at 2 ppm) | mortality at 10 ppm [3] | mortality at 50 ppm [3] | mortality at 250 ppm ([3]; sprayed at 250 ppm) | mortality at 250 ppm ([4]; sprayed at 250 ppm)

O=c1c(-c2ccc(F)c(C(F)(F)F)c2)c([O-])[n+](Cc2cncnc2)c2ccccn12 [Compound 12, 3-[4-fluoro-3-(trifluoromethyl)phenyl]-2-hydroxy-4-oxo-1-(5-pyrimidinylmethyl)-4H-pyrido[1,2-a]pyrimidinium inner salt]
≥ 80%: mortality at 10 ppm [1] | mortality at 50 ppm [1] | mortality at 10 ppm [5] | mortality at 50 ppm [6] | mortality at 10 ppm [3] | mortality at 50 ppm [3] | mortality at 50 ppm ([4]; sprayed at 50 ppm)
